target: HPK1 (Homo sapiens (Human), UniProt Q92918); assay: HPK1 Inhibition Assay (ADP-Glo kinase assay); format: biochemical; settings: ATP 10 μM
Method in brief: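 ADP-Glo luminescence read-out after 1 h room-temperature kinase reaction with 10 μM ATP and 0.1 μg/ml MBP. Recombinant human HPK1 at 7.5 ng/μl; buffer 40 mM Tris pH 7.5, 20 mM MgCl2. Compounds serially diluted 5-fold over 10 points from 10 mM DMSO stock.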

Sequence of HPK1 (Q92918 1-346 limits assumed): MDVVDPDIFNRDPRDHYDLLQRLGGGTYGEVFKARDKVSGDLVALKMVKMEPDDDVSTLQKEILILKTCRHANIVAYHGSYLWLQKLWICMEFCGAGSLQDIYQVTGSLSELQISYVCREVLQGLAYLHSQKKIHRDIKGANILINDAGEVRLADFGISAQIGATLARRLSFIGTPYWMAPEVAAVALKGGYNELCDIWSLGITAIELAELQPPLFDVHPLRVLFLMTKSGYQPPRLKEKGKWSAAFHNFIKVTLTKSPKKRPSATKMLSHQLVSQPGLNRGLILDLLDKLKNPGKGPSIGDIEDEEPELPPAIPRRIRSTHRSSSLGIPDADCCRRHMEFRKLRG

IC50, < 100 nM:
C[C@H]1CN(c2c(NC(=O)c3ccc(=O)n(-c4c(F)cccc4F)n3)ccc3nn(C(C)(C)C)cc23)C[C@@H]1N [Example 238, N-(4-((3R,4S)-3-amino-4-methylpyrrolidin-1-yl)-2-(tert-butyl)-2H-indazol-5-yl)-1-(2,6-difluorophenyl)-6-oxo-1,6-dihydropyridazine-3-carboxamide]
CC(C)(C)n1cc2c(N3CCC[C@@H](N)C3)c(NC(=O)c3ccc(=O)n(-c4c(F)cccc4F)n3)ccc2n1 [Example 239, (R)-N-(4-(3-aminopiperidin-1-yl)-2-(tert-butyl)-2H-indazol-5-yl)-1-(2,6-difluorophenyl)-6-oxo-1,6-dihydropyridazine-3-carboxamide]
CC(C)(C)n1cc2c(N3CCC(N)CC3)c(NC(=O)c3ccc(=O)n(-c4c(F)cccc4F)n3)ccc2n1 [Example 240, N-(4-(4-aminopiperidin-1-yl)-2-(tert-butyl)-2H-indazol-5-yl)-1-(2,6-difluorophenyl)-6-oxo-1,6-dihydropyridazine-3-carboxamide]
CC(C)(C)n1cc2c(N3CC[C@@H](N)C3)c(NC(=O)c3ccc(=O)n(-c4c(F)cccc4F)n3)ccc2n1 [Example 241, (R)-N-(4-(3-aminopyrrolidin-1-yl)-2-(tert-butyl)-2H-indazol-5-yl)-1-(2,6-difluorophenyl)-6-oxo-1,6-dihydropyridazine-3-carboxamide]
CC(C)(C)n1cc2c(N3C[C@@H](N)C4(CC4)C3)c(NC(=O)c3ccc(=O)n(-c4c(F)cccc4F)n3)ccc2n1 [Example 242, (S)-N-(4-(7-amino-5-azaspiro[2.4]heptan-5-yl)-2-(tert-butyl)-2H-indazol-5-yl)-1-(2,6-difluorophenyl)-6-oxo-1,6-dihydropyridazine-3-carboxamide]
CCC(C)(C)n1cc2c(N3C[C@H](C)[C@@H](N)C3)c(NC(=O)c3ccc(=O)n(-c4c(F)cccc4F)n3)ccc2n1 [Example 243, N-(4-((3R,4S)-3-amino-4-methylpyrrolidin-1-yl)-2-(tert-pentyl)-2H-indazol-5-yl)-1-(2,6-difluorophenyl)-6-oxo-1,6-dihydropyridazine-3-carboxamide]
CCC(C)(C)n1cc2c(N3C[C@@H](C)[C@@H](N)C3)c(NC(=O)c3ccc(=O)n(-c4c(F)cccc4F)n3)ccc2n1 [Example 244, 1-(2,6-difluorophenyl)-N-(4-[(3R,4R)-3-amino-4-methyltetrahydro-1H-pyrrol-1-yl]-2-(2-methylbut-2-yl)indazol-5-yl)-6-oxo-1,2-diazine-3-carboxamide]
C[C@@H]1CN(c2c(NC(=O)c3ccc(=O)n(-c4c(F)cccc4F)n3)ccc3nn(C(C)(C)C(C)(C)C)cc23)C[C@@H]1N [Example 245, N-(4-((3R,4R)-3-amino-4-methylpyrrolidin-1-yl)-2-(2,3,3-trimethylbutan-2-yl)-2H-indazol-5-yl)-1-(2,6-difluorophenyl)-6-oxo-1,6-dihydropyridazine-3-carboxamide]
CC(C)(C)C(C)(C)n1cc2c(N3C[C@H](N)C4(CC4)C3)c(NC(=O)c3ccc(=O)n(-c4c(F)cccc4F)n3)ccc2n1 [Example 246, (R)-N-(4-(7-amino-5-azaspiro[2.4]heptan-5-yl)-2-(2,3,3-trimethylbutan-2-yl)-2H-indazol-5-yl)-1-(2,6-difluorophenyl)-6-oxo-1,6-dihydropyridazine-3-carboxamide]
CC(C)C(C)(C)n1cc2c(N3C[C@@H](C)[C@@H](N)C3)c(NC(=O)c3ccc(=O)n(-c4c(F)cccc4F)n3)ccc2n1 [Example 247, N-(4-((3R,4R)-3-amino-4-methylpyrrolidin-1-yl)-2-(2,3-dimethylbutan-2-yl)-2H-indazol-5-yl)-1-(2,6-difluorophenyl)-6-oxo-1,6-dihydropyridazine-3-carboxamide]
CC(C)C(C)(C)n1cc2c(N3C[C@H](N)C4(CC4)C3)c(NC(=O)c3ccc(=O)n(-c4c(F)cccc4F)n3)ccc2n1 [Example 248, (R)-N-(4-(7-amino-5-azaspiro[2.4]heptan-5-yl)-2-(2,3-dimethylbutan-2-yl)-2H-indazol-5-yl)-1-(2,6-difluorophenyl)-6-oxo-1,6-dihydropyridazine-3-carboxamide]
N[C@H]1CN(c2c(NC(=O)c3ccc(=O)n(-c4c(F)cccc4F)n3)ccc3c2cnn3[C@H]2CCOC2)CC12CC2 [Example 249, 1-(2,6-difluorophenyl)-N-{4-[(7R)-7-amino-5-azaspiro[2.4]heptan-5-yl]-1-[(3S)-tetrahydro-3-furyl]indazol-5-yl}-6-oxo-1,2-diazine-3-carboxamide]
N[C@H]1CN(c2c(NC(=O)c3ccc(=O)n(-c4c(F)cccc4F)n3)ccc3c2cnn3[C@@H]2CCOC2)CC12CC2 [Example 250, N-(4-((R)-7-amino-5-azaspiro[2.4]heptan-5-yl)-1-((R)-tetrahydrofuran-3-yl)-1H-indazol-5-yl)-1-(2,6-difluorophenyl)-6-oxo-1,6-dihydropyridazine-3-carboxamide]
N[C@H]1CN(c2c(NC(=O)c3ccc(=O)n(-c4c(F)cccc4F)n3)ccc3c2cnn3C2CCOCC2)CC12CC2 [Example 251, (R)-N-(4-(7-amino-5-azaspiro[2.4]heptan-5-yl)-1-(tetrahydro-2H-pyran-4-yl)-1H-indazol-5-yl)-1-(2,6-difluorophenyl)-6-oxo-1,6-dihydropyridazine-3-carboxamide]
C[C@@H]1CN(c2c(NC(=O)c3ccc(=O)n(-c4c(F)cccc4F)n3)ccc3c2cnn3[C@@H]2CCCOC2)C[C@@H]1N [Example 252, N-(4-((3R,4R)-3-amino-4-methylpyrrolidin-1-yl)-1-((R)-tetrahydro-2H-pyran-3-yl)-1H-indazol-5-yl)-1-(2,6-difluorophenyl)-6-oxo-1,6-dihydropyridazine-3-carboxamide]
C[C@@H]1CN(c2c(NC(=O)c3ccc(=O)n(-c4c(F)cccc4F)n3)ccc3c2cnn3[C@H]2CCCOC2)C[C@@H]1N [Example 253, N-(4-((3R,4R)-3-amino-4-methylpyrrolidin-1-yl)-1-((S)-tetrahydro-2H-pyran-3-yl)-1H-indazol-5-yl)-1-(2,6-difluorophenyl)-6-oxo-1,6-dihydropyridazine-3-carboxamide]
C[C@@H]1CN(c2c(NC(=O)c3ccc(=O)n(-c4c(F)cccc4F)n3)ccc3c2cnn3[C@H]2CCOC2)C[C@@H]1N [Example 255, N-(4-((3R,4R)-3-amino-4-methylpyrrolidin-1-yl)-1-((S)-tetrahydrofuran-3-yl)-1H-indazol-5-yl)-1-(2,6-difluorophenyl)-6-oxo-1,6-dihydropyridazine-3-carboxamide]
CC[C@H](C)n1ncc2c(N3C[C@@H](C)[C@@H](N)C3)c(NC(=O)c3ccc(=O)n(-c4c(F)cccc4F)n3)ccc21 [Example 256, N-(4-((3R,4R)-3-amino-4-methylpyrrolidin-1-yl)-1-((S)-sec-butyl)-1H-indazol-5-yl)-1-(2,6-difluorophenyl)-6-oxo-1,6-dihydropyridazine-3-carboxamide]
CC[C@@H](C)n1ncc2c(N3C[C@@H](C)[C@@H](N)C3)c(NC(=O)c3ccc(=O)n(-c4c(F)cccc4F)n3)ccc21 [Example 257, N-(4-((3R,4R)-3-amino-4-methylpyrrolidin-1-yl)-1-((R)-sec-butyl)-1H-indazol-5-yl)-1-(2,6-difluorophenyl)-6-oxo-1,6-dihydropyridazine-3-carboxamide]
C[C@@H]1CN(c2c(NC(=O)c3ccc(=O)n(-c4c(F)cccc4F)n3)ccc3c2cnn3C2COC2)C[C@@H]1N [Example 258, N-(4-((3R,4R)-3-amino-4-methylpyrrolidin-1-yl)-1-(oxetan-3-yl)-1H-indazol-5-yl)-1-(2,6-difluorophenyl)-6-oxo-1,6-dihydropyridazine-3-carboxamide]
C[C@H]1CN(c2c(NC(=O)c3ccc(=O)n(-c4c(F)cccc4F)n3)ccc3c2cnn3[C@@H]2CCOC2)C[C@@H]1N [Example 259, N-(4-((3R,4S)-3-amino-4-methylpyrrolidin-1-yl)-1-((R)-tetrahydrofuran-3-yl)-1H-indazol-5-yl)-1-(2,6-difluorophenyl)-6-oxo-1,6-dihydropyridazine-3-carboxamide]
C[C@H]1CN(c2c(NC(=O)c3ccc(=O)n(-c4c(F)cccc4F)n3)ccc3c2cnn3[C@H]2CCOC2)C[C@@H]1N [Example 260, N-(4-((3R,4S)-3-amino-4-methylpyrrolidin-1-yl)-1-((S)-tetrahydrofuran-3-yl)-1H-indazol-5-yl)-1-(2,6-difluorophenyl)-6-oxo-1,6-dihydropyridazine-3-carboxamide]
C[C@@H]1CN(c2c(NC(=O)c3ccc(=O)n(-c4c(F)cccc4F)n3)ccc3c2cnn3C2CCOCC2)C[C@@H]1N [Example 261, N-(4-((3R,4R)-3-amino-4-methylpyrrolidin-1-yl)-1-(tetrahydro-2H-pyran-4-yl)-1H-indazol-5-yl)-1-(2,6-difluorophenyl)-6-oxo-1,6-dihydropyridazine-3-carboxamide]
C[C@@H]1CN(c2c(NC(=O)c3ccc(=O)n(-c4c(F)cccc4F)n3)ccc3c2cnn3[C@@H]2CCOC2)C[C@@H]1N [Example 262, N-(4-((3R,4R)-3-amino-4-methylpyrrolidin-1-yl)-1-((R)-tetrahydrofuran-3-yl)-1H-indazol-5-yl)-1-(2,6-difluorophenyl)-6-oxo-1,6-dihydropyridazine-3-carboxamide]
